Earlier results in patent US11712422B2, “Pharmaceutical compositions comprising activated carbon” (FERRING B.V., priority 2012, dated 2023).

## c1ccc2[nH]ccc2c1 [Indole]
  Log P: 2.14
